Literature values as cited in patent US7968545B2 (priority 2003, dated 2011).

Columns and labels:
[1] = human, in vivo
[2] = in vivo
[3] = in vivo; remark: listed apart in the source

Structure (SMILES): NCC1(CC(=O)O)CCCCC1 [Gabapentin]
- share of patients in whom it works [1]: 60%

Structure (SMILES): CSCC[C@@H]1NC(=O)[C@H](CC(C)C)NC(=O)[C@H](CCCNC(=N)N)NC(=O)[C@H](CO)NC(=O)[C@@H]2CSSC[C@@H]3NC(=O)[C@H](CO)NC(=O)CNC(=O)[C@H]([C@@H](C)O)NC(=O)[C@H](CSSC[C@H](N)C(=O)N[C@@H](CCCCN)C(=O)NCC(=O)N[C@@H](CCCCN)C(=O)NCC(=O)N[C@@H](C)C(=O)N[C@@H](CCCCN)C(=O)N2)NC(=O)[C@H](CSSC[C@@H](C(N)=O)NC(=O)[C@H](CCCCN)NC(=O)CNC(=O)[C@H](CO)NC(=O)[C@H](CCCNC(=N)N)NC3=O)NC(=O)[C@H](CC(=O)O)NC(=O)[C@H](Cc2ccc(O)cc2)NC1=O [Ziconotide, ω-conotoxin-MVIIA]
- reduction of infarct size [2]: effective in reducing infarct size
- success rate for the treatment of pain [3]: 85%
